In US4738954A, “Novel N^6 -substituted-5'-oxidized adenosine analogs” (Warner-Lambert Company, priority 1985, dated 1988):

How the values were obtained:
[1] = tested on: mice falling off the inverted screen; test: Mouse Activity and Screen Test Procedure (MAST): screen test; format: in vivo, Swiss-Webster male mice
Description: The compounds of the invention are new chemical substances which are useful as pharmaceutical agents for the treatment of psychoses. The antipsychotic activity of representative compounds of the invention was established by the Mouse Activity and Screen Test Procedure (MAST) described below. Animals Nine unfasted Swiss-Webster male mice weighing 20-30 g are equally divided into three groups for each drug dose to be tested. That is, data for each dose level was generated by three separate groups of three mice each. Drugs A minimum of three dose levels (10, 30, and 100 mg/kg) are tested for each drug. Treatments are administered intraperitoneally one hour prior to testing. All dosages are calculated as parent compound and given in volumes of 10 ml/kg. Compounds are dissolved or suspended in 0.2% Methocel. Control animals are injected with Methocel. Testing: A two part testing procedure is started one hour postinjection. First, the screen test (ST) is performed (see Pharmac. Biochem. Behav. 6, 351-353, 1977). Briefly this test consists of placing mice on individual wire screens which are then rotated 180 degrees at the start of a 60 second observation period. The number of mice falling off the inverted screen is recorded. Data: The data obtained from the screen test are expressed as percent of mice falling off the screen. Data derived from locomotor activity of drug treated mice are compared to the activity of vehicle treated animals and are expressed as percent inhibition of spontaneous locomotion. All percentages reported for inhibition of locomotion (LI) are based upon data accumulated for one hour. Both phases of testing are graded: A=60-100%; C=31-59%; and N=0-30%. An overall dose rating is obtained by the following criteria: LAD refers to the lowest dose at which an A rating is achieved. […] Utilizing this procedure, an overall dose rating of A was obtained for the noted compound at the indicated dose. The compounds are identified in the Examples.

mouse locomotor activity = test: Mouse Activity and Screen Test Procedure (MAST): locomotor activity; format: in vivo, Swiss-Webster male mice; details: mice, one hour
Description: The compounds of the invention are new chemical substances which are useful as pharmaceutical agents for the treatment of psychoses. The antipsychotic activity of representative compounds of the invention was established by the Mouse Activity and Screen Test Procedure (MAST) described below.
Nine unfasted Swiss-Webster male mice weighing 20-30 g are equally divided into three groups for each drug dose to be tested. That is, data for each dose level was generated by three separate groups of three mice each.
A minimum of three dose levels (10, 30, and 100 mg/kg) are tested for each drug. Treatments are administered intraperitoneally one hour prior to testing. All dosages are calculated as parent compound and given in volumes of 10 ml/kg. Compounds are dissolved or suspended in 0.2% Methocel. Control animals are injected with Methocel.
A two part testing procedure is started one hour postinjection. First, the screen test (ST) is performed (see Pharmac. Biochem. Behav. 6, 351-353, 1977). Briefly this test consists of placing mice on individual wire screens which are then rotated 180 degrees at the start of a 60 second observation period. The number of mice falling off the inverted screen is recorded.
Immediately following the screen test, the final phase of testing is initiated by placing each group of three mice in one actophotometer (Life Sciences, 22, 1067-1076, 1978). The actophotometer consists of a cylindrical chamber whose center is occupied by another cylinder which contains the illumination for six photocells located on the perimeter of the chamber. Six light-beam interruptions equal one count. Locomotor activity is recorded by computer at ten minute intervals for 60 minutes.
The data obtained from the screen test are expressed as percent of mice falling off the screen. Data derived from locomotor activity of drug treated mice are compared to the activity of vehicle treated animals and are expressed as percent inhibition of spontaneous locomotion. All percentages reported for inhibition of locomotion (LI) are based upon data accumulated for one hour. Both phases of testing are graded: A=60-100%; C=31-59%; and N=0-30%. An overall dose rating is obtained by the following criteria:
LAD refers to the lowest dose at which an A rating is achieved. […] Utilizing this procedure, an overall dose rating of A was obtained for the noted compound at the indicated dose. The compounds are identified in the Examples.

Structure (SMILES) | Screen test failure ([1]; 0.01 mg/kg IP) | Screen test failure ([1]; 0.03 mg/kg IP) | Screen test failure ([1]; 0.1 mg/kg IP) | Screen test failure ([1]; 0.3 mg/kg IP) | Screen test failure ([1]; 1 mg/kg IP) | Screen test failure ([1]; 3 mg/kg IP) | Screen test failure ([1]; 10 mg/kg IP) | Screen test failure ([1]; 30 mg/kg IP) | Inhibition of mouse locomotor activity (mouse locomotor activity; 0.01 mg/kg IP) | Inhibition of mouse locomotor activity (mouse locomotor activity; 0.03 mg/kg IP) | Inhibition of mouse locomotor activity (mouse locomotor activity; 0.1 mg/kg IP) | Inhibition of mouse locomotor activity (mouse locomotor activity; 0.3 mg/kg IP) | Inhibition of mouse locomotor activity (mouse locomotor activity; 1 mg/kg IP) | Inhibition of mouse locomotor activity (mouse locomotor activity; 3 mg/kg IP) | Inhibition of mouse locomotor activity (mouse locomotor activity; 10 mg/kg IP) | Inhibition of mouse locomotor activity (mouse locomotor activity; 30 mg/kg IP)
CCNC(=O)[C@H]1O[C@@H](n2cnc3c(N[C@H](C)Cc4ccccc4)ncnc32)[C@H](O)[C@@H]1O [Example 1, (R)-N-6-[(2-phenyl-1-methyl)ethyl]-adenosine-5'-ethylcarboxamide] | 0% | 0% | 33% | 11% | 33% | 88% | 100% | 100% | -8% | 18% | 91% | 75% | 92% | 99% | 99% | 99%
CCNC(=O)[C@H]1O[C@@H](n2cnc3c(NCC(c4ccccc4)c4ccccc4)ncnc32)[C@H](O)[C@@H]1O [Example 3, N^6-(2,2-diphenylethyl)-adenosine-5'-ethylcarboxamide] | – | – | 0% | 0% | 0% | 0% | 11% | 33% | – | – | 20% | 1% | 72% | 92% | 90% | 93%
CCOC(=O)[C@H]1O[C@@H](n2cnc3c(NCC(c4ccccc4)c4ccccc4)ncnc32)[C@H](O)[C@@H]1O [Example 5, N6-(2,2-diphenylethyl)-5-adenosine-5'-ethylcarboxylate] | – | – | – | – | – | 11% | 0% | 0% | – | – | – | – | – | -4% | 0% | 2%
CCNC(=O)[C@H]1O[C@@H](n2cnc3c(NCc4cccc5ccccc45)ncnc32)[C@H](O)[C@@H]1O [Example 6, N-6-Naphthylmethyladenosine-5'-ethylcarboxamide] | – | 0% | 0% | 0% | 11% | 11% | 0% | – | – | 21% | 30% | 82% | 87% | 88% | 90% | –
